The record followed here is ChEMBL document CHEMBL1208720, “N-Benzylsalicylthioamides as novel compounds with promising antimycotic activity” (2010).

What all share (type): functional
The test system of assay [1] is Candida albicans. Nature of the assay: Antifungal activity against Candida albicans ATCC 44859 after 24 hrs by broth microdilution assay. To be noted: for MIC: Candida albicans, ATCC 44859, 24 h.
Assay [2] has as its system Candida albicans. Nature of the assay: Antifungal activity against Candida albicans ATCC 44859 after 48 hrs by broth microdilution assay. To be noted: for MIC: Candida albicans, ATCC 44859, 48 h.
Assay [3] relates to Candida tropicalis. Nature of the assay: Antifungal activity against Candida tropicalis 159 after 24 hrs by broth microdilution assay. To be noted: for MIC: Candida tropicalis, 159, 24 h.
The subject of assay [4] is Candida tropicalis. The experiment in a line: Antifungal activity against Candida tropicalis 159 after 48 hrs by broth microdilution assay. The note with it: for MIC: Candida tropicalis, 159, 48 h.
For assay [5], the system named is Pichia kudriavzevii. Nature of the assay: Antifungal activity against Candida krusei E28 after 24 hrs by broth microdilution assay. To be noted: for MIC: Pichia kudriavzevii, E28, 24 h.
Assay [6] has as its system Pichia kudriavzevii. The experiment in a line: Antifungal activity against Candida krusei E28 after 48 hrs by broth microdilution assay. To be noted: for MIC: Pichia kudriavzevii, E28, 48 h.
Assay [7] relates to Nakaseomyces glabratus. Nature of the assay: Antifungal activity against Candida glabrata 20/I after 24 hrs by broth microdilution assay. To be noted: for MIC: Nakaseomyces glabratus, 20/I, 24 h.
Assay [8] concerns Nakaseomyces glabratus. Nature of the assay: Antifungal activity against Candida glabrata 20/I after 48 hrs by broth microdilution assay. The note with it: for MIC: Nakaseomyces glabratus, 20/I, 48 h.
Assay [9] deals with Trichosporon asahii. The experiment in a line: Antifungal activity against Trichosporon asahii 1188 after 24 hrs by broth microdilution assay. The note with it: for MIC: Trichosporon asahii, 1188, 24 h.
Assay [10] has as its system Trichosporon asahii. The experiment in a line: Antifungal activity against Trichosporon asahii 1188 after 48 hrs by broth microdilution assay. The note with it: for MIC: Trichosporon asahii, 1188, 48 h.
In assay [11] the test system is Aspergillus fumigatus. Nature of the assay: Antifungal activity against Aspergillus fumigatus 231 after 24 hrs by broth microdilution assay. To be noted: for MIC: Aspergillus fumigatus, 231, 24 h.
Assay [12] relates to Aspergillus fumigatus. The experiment in a line: Antifungal activity against Aspergillus fumigatus 231 after 48 hrs by broth microdilution assay. To be noted: for MIC: Aspergillus fumigatus, 231, 48 h.
Assay [13] has as its system Lichtheimia corymbifera. Nature of the assay: Antifungal activity against Absidia corymbifera 272 after 24 hrs by broth microdilution assay. The note with it: for MIC: Lichtheimia corymbifera, 272, 24 h.
Assay [14] relates to Lichtheimia corymbifera. The experiment in a line: Antifungal activity against Absidia corymbifera 272 after 48 hrs by broth microdilution assay. To be noted: for MIC: Lichtheimia corymbifera, 272, 48 h.
The subject of assay [15] is Trichophyton mentagrophytes. Nature of the assay: Antifungal activity against Trichophyton mentagrophytes 445 after 72 hrs by broth microdilution assay. To be noted: for MIC: Trichophyton mentagrophytes, 445, 72 h.
The test system of assay [16] is Trichophyton mentagrophytes. The experiment in a line: Antifungal activity against Trichophyton mentagrophytes 445 after 120 hrs by broth microdilution assay. To be noted: for MIC: Trichophyton mentagrophytes, 445, 120 h.

Structures are written as SMILES. In brackets after ≈: the same amount, converted by molar mass. Bounds are passed on as bounds.

As to `Cc1ccc(C(=S)NCc2ccc(Cl)cc2)c(O)c1`, the MIC in the assay with Candida albicans [1], against Candida albicans [2], in the assay on Candida tropicalis [3], against Candida tropicalis [4], in the assay with Pichia kudriavzevii [5] and against Pichia kudriavzevii [6] was greater than 500 µM in each case. In addition, the MIC against Nakaseomyces glabratus [7], in the assay on Nakaseomyces glabratus [8], in the assay with Trichosporon asahii [9], against Trichosporon asahii [10], against Aspergillus fumigatus [11] and in the assay on Aspergillus fumigatus [12] was greater than 500 µM in each case. Further, the MIC (in the assay on Lichtheimia corymbifera [13]; in the assay on Lichtheimia corymbifera [14]; in assay [15]; in assay [16]) was greater than 500 µM in each case.

As to `COc1ccc(O)c(C(=S)NCc2ccccc2)c1`, the logMIC with Candida albicans [1] is reported as 2.1; with Candida albicans [2], 2.4; in the assay on Candida tropicalis [3] it was 2.4; in the assay on Candida tropicalis [4], 2.4; in the assay on Pichia kudriavzevii [5] it was 2.4; in the assay on Pichia kudriavzevii [6], 2.4. In addition, the logMIC with Nakaseomyces glabratus [7] was 2.4; with Nakaseomyces glabratus [8], 2.4; in the assay on Trichosporon asahii [9], 2.1; in the assay on Trichosporon asahii [10] it was 2.4; in the assay on Aspergillus fumigatus [11], 2.4; in the assay on Aspergillus fumigatus [12], 2.4. For the same compound, the logMIC in the assay with Lichtheimia corymbifera [13] is reported as 1.49; in the assay on Lichtheimia corymbifera [14] it was 2.1; in assay [15] it was 1.8; in assay [16], 1.8.

Take `Oc1ccc(Cl)cc1C(=S)NCc1ccccc1`: the MIC came to 62.5 µM (≈ 17.4 µg/mL) against Candida albicans [1]; 125 µM (≈ 34.7 µg/mL) in the assay on Candida albicans [2]; 62.5 µM (≈ 17.4 µg/mL) in the assay with Candida tropicalis [3]; 125 µM (≈ 34.7 µg/mL) against Candida tropicalis [4]; 15.6 µM (≈ 4.34 µg/mL) in the assay on Pichia kudriavzevii [5]; 31.2 µM (≈ 8.68 µg/mL) in the assay on Pichia kudriavzevii [6]. The MIC in the assay on Nakaseomyces glabratus [7] turned out to be 15.6 µM (≈ 4.34 µg/mL); in the assay with Nakaseomyces glabratus [8] it was 62.5 µM (≈ 17.4 µg/mL); against Trichosporon asahii [9] it was 31.2 µM (≈ 8.68 µg/mL); against Trichosporon asahii [10], 31.2 µM (≈ 8.68 µg/mL); against Aspergillus fumigatus [11], 31.2 µM (≈ 8.68 µg/mL); against Aspergillus fumigatus [12], 31.2 µM (≈ 8.68 µg/mL). The MIC in the assay on Lichtheimia corymbifera [13] was found to be 15.6 µM (≈ 4.34 µg/mL); against Lichtheimia corymbifera [14], 15.6 µM (≈ 4.34 µg/mL); in assay [15], 1.95 µM (≈ 0.542 µg/mL); in [16] it was 3.9 µM (≈ 1.08 µg/mL).

In the case of `Oc1ccccc1C(=S)NCc1cccc(Cl)c1`, the MIC in the assay with Candida albicans [1] amounted to 125 µM (≈ 34.7 µg/mL); against Candida albicans [2], 125 µM (≈ 34.7 µg/mL); against Candida tropicalis [3], 125 µM (≈ 34.7 µg/mL); against Candida tropicalis [4], 125 µM (≈ 34.7 µg/mL); against Pichia kudriavzevii [5], 62.5 µM (≈ 17.4 µg/mL); with Pichia kudriavzevii [6], 125 µM (≈ 34.7 µg/mL). Further, the MIC came out at 125 µM (≈ 34.7 µg/mL) in the assay on Nakaseomyces glabratus [7]; 250 µM (≈ 69.4 µg/mL) against Nakaseomyces glabratus [8]; 31.2 µM (≈ 8.68 µg/mL) in the assay on Trichosporon asahii [9]; 31.2 µM (≈ 8.68 µg/mL) in the assay on Trichosporon asahii [10]; 62.5 µM (≈ 17.4 µg/mL) against Aspergillus fumigatus [11]; 62.5 µM (≈ 17.4 µg/mL) against Aspergillus fumigatus [12]. Besides, the MIC with Lichtheimia corymbifera [13] amounted to 31.2 µM (≈ 8.68 µg/mL); in the assay on Lichtheimia corymbifera [14], 31.2 µM (≈ 8.68 µg/mL); in assay [15], 7.81 µM (≈ 2.17 µg/mL); in assay [16], 15.6 µM (≈ 4.34 µg/mL).

As for `Cc1cccc(CNC(=S)c2ccccc2O)c1`, the MIC against Candida albicans [1] is 125 µM (≈ 32.2 µg/mL); in the assay with Candida albicans [2] it was 250 µM (≈ 64.3 µg/mL); in the assay on Candida tropicalis [3], 125 µM (≈ 32.2 µg/mL); against Candida tropicalis [4], 250 µM (≈ 64.3 µg/mL); with Pichia kudriavzevii [5], 125 µM (≈ 32.2 µg/mL); in the assay with Pichia kudriavzevii [6], 250 µM (≈ 64.3 µg/mL). The MIC was 125 µM (≈ 32.2 µg/mL) with Nakaseomyces glabratus [7]; 250 µM (≈ 64.3 µg/mL) against Nakaseomyces glabratus [8]; 31.2 µM (≈ 8.04 µg/mL) in the assay on Trichosporon asahii [9]; 62.5 µM (≈ 16.1 µg/mL) against Trichosporon asahii [10]; 62.5 µM (≈ 16.1 µg/mL) against Aspergillus fumigatus [11]; 62.5 µM (≈ 16.1 µg/mL) against Aspergillus fumigatus [12]. The MIC in the assay on Lichtheimia corymbifera [13] amounted to 62.5 µM (≈ 16.1 µg/mL); in the assay on Lichtheimia corymbifera [14] it was 15.6 µM (≈ 4.02 µg/mL); in assay [15] it was 15.6 µM (≈ 4.02 µg/mL); in assay [16] it was 15.6 µM (≈ 4.02 µg/mL).

For the compound `Cc1ccc(C(=S)NCc2ccc(C(C)(C)C)cc2)c(O)c1`, the MIC in the assay with Candida albicans [1], against Candida albicans [2], against Candida tropicalis [3], against Candida tropicalis [4], in the assay with Pichia kudriavzevii [5] and against Pichia kudriavzevii [6] was greater than 500 µM throughout. Also, the MIC against Nakaseomyces glabratus [7], with Nakaseomyces glabratus [8], against Trichosporon asahii [9], against Trichosporon asahii [10], against Aspergillus fumigatus [11] and in the assay on Aspergillus fumigatus [12] was greater than 500 µM throughout. The MIC (in the assay with Lichtheimia corymbifera [13]; in the assay on Lichtheimia corymbifera [14]; in assay [15]; in assay [16]) was greater than 500 µM throughout.

Consider `Oc1ccc(Br)cc1C(=S)NCc1cccc(Br)c1`, for which the MIC was 15.6 µM (≈ 6.27 µg/mL) against Candida albicans [1]; 31.2 µM (≈ 12.5 µg/mL) with Candida albicans [2]; 15.6 µM (≈ 6.27 µg/mL) in the assay on Candida tropicalis [3]; 62.5 µM (≈ 25.1 µg/mL) against Candida tropicalis [4]; 3.9 µM (≈ 1.56 µg/mL) in the assay on Pichia kudriavzevii [5]; 7.81 µM (≈ 3.13 µg/mL) against Pichia kudriavzevii [6]. In addition, the MIC in the assay on Nakaseomyces glabratus [7] amounted to 7.81 µM (≈ 3.13 µg/mL); against Nakaseomyces glabratus [8], 31.2 µM (≈ 12.5 µg/mL); in the assay on Trichosporon asahii [9], 15.6 µM (≈ 6.27 µg/mL); with Trichosporon asahii [10], 31.2 µM (≈ 12.5 µg/mL); against Aspergillus fumigatus [11], 7.81 µM (≈ 3.13 µg/mL); in the assay on Aspergillus fumigatus [12], 15.6 µM (≈ 6.27 µg/mL). For the same compound, the MIC with Lichtheimia corymbifera [13] came to 3.9 µM (≈ 1.56 µg/mL); in the assay with Lichtheimia corymbifera [14], 3.9 µM (≈ 1.56 µg/mL); in assay [15], 1.95 µM (≈ 0.782 µg/mL); in [16], 1.95 µM (≈ 0.782 µg/mL).

Turning to `Cc1ccc(CNC(=S)c2ccccc2O)cc1`, the MIC against Candida albicans [1] stood at 62.5 µM (≈ 16.1 µg/mL); in the assay on Candida albicans [2], 125 µM (≈ 32.2 µg/mL); in the assay on Candida tropicalis [3], 125 µM (≈ 32.2 µg/mL); against Candida tropicalis [4], 125 µM (≈ 32.2 µg/mL); in the assay with Pichia kudriavzevii [5], 62.5 µM (≈ 16.1 µg/mL); in the assay with Pichia kudriavzevii [6], 125 µM (≈ 32.2 µg/mL). In addition, the minimum inhibitory concentration (MIC) against Nakaseomyces glabratus [7] is 125 µM (≈ 32.2 µg/mL); with Nakaseomyces glabratus [8], 125 µM (≈ 32.2 µg/mL); against Trichosporon asahii [9] it was 31.2 µM (≈ 8.04 µg/mL); against Trichosporon asahii [10], 62.5 µM (≈ 16.1 µg/mL); in the assay on Aspergillus fumigatus [11], 125 µM (≈ 32.2 µg/mL); in the assay on Aspergillus fumigatus [12], 250 µM (≈ 64.3 µg/mL). Also, the MIC against Lichtheimia corymbifera [13] worked out at 15.6 µM (≈ 4.02 µg/mL); in the assay with Lichtheimia corymbifera [14], 31.2 µM (≈ 8.04 µg/mL); in assay [15], 31.2 µM (≈ 8.04 µg/mL); in [16], 15.6 µM (≈ 4.02 µg/mL).

For `Oc1ccc(Br)cc1C(=S)NCc1ccc(Cl)c(Cl)c1`, the MIC amounted to 15.6 µM (≈ 6.11 µg/mL) against Candida albicans [1]; 31.2 µM (≈ 12.2 µg/mL) against Candida albicans [2]; 31.2 µM (≈ 12.2 µg/mL) with Candida tropicalis [3]; 31.2 µM (≈ 12.2 µg/mL) against Candida tropicalis [4]; 7.81 µM (≈ 3.05 µg/mL) against Pichia kudriavzevii [5]; 15.6 µM (≈ 6.11 µg/mL) against Pichia kudriavzevii [6]. The MIC was 31.2 µM (≈ 12.2 µg/mL) with Nakaseomyces glabratus [7]; 62.5 µM (≈ 24.4 µg/mL) against Nakaseomyces glabratus [8]; 3.9 µM (≈ 1.53 µg/mL) against Trichosporon asahii [9]; 7.81 µM (≈ 3.05 µg/mL) with Trichosporon asahii [10]; 7.81 µM (≈ 3.05 µg/mL) in the assay with Aspergillus fumigatus [11]; 7.81 µM (≈ 3.05 µg/mL) with Aspergillus fumigatus [12]. Besides, the MIC with Lichtheimia corymbifera [13] worked out at 3.9 µM (≈ 1.53 µg/mL); against Lichtheimia corymbifera [14] it was 3.9 µM (≈ 1.53 µg/mL); in [15], 0.98 µM (≈ 0.383 µg/mL); in assay [16], 0.98 µM (≈ 0.383 µg/mL).
